Results reported in patent publication US6399355B1 (priority 1995, dated 2002).

System: HIV-1
Type: cell-based
Details: for Inhibition Ratio (Number of viral particles/ml in control)/(Number with drug added): 1 μg/ml test compound mixed with HIV-1 (10^5 infectious units) at 37° C. for 2 hours, cells cultured six days; for viral inactivation (in words): at these concentrations (1 μg/ml)
Protocol: HIV-1 (10^5 infectious units) was mixed with 1 μg/ml of test compound at 37° C. for 2 hours. Test cells were innoculated with the mixture for two hours. The cells were then washed three times with PBS and cultured for six days.

Row | Substance | Inhibition Ratio (Number of viral particles/ml in control)/(Number with drug added) | viral inactivation (in words)
1 | Dextran sulfate | 1 | do not show significant activation
2 | pentosan sulfate [Pentosan Sultate] | 1 | do not show significant activation
